Patent US8343983B2, “Substituted pyrazolo-pyrimidine compounds” (ArQule, Inc., priority 2009, dated 2013)
Read-outs that look alike come from different tables or passages of the source.

System: cancer cells
Experiment: MTS assay: inhibition of cell growth (formazan absorbance at 492 nm after 72 hours with test compound)
Assay type: cell-based
Conditions: inhibition class
Summary of the method: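 DMEM with 1% FBS; cells seeded at 3000/well and grown 18 h at 37 °C, then exposed to compound for 72 h and to MTS/PMS for 4 h. IC50 is the concentration giving a 50% absorbance drop; grades are % inhibition bands.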

[1] = Homo sapiens, DLD-1 cells, read-out: DLD-1, MTS 72 hours at 10 uM
[2] = Homo sapiens, KATO III cells, read-out: KATO III, MTS 72 hours at 10 uM
[3] = Homo sapiens, MDA-MB-231 cells, read-out: MDA-MB-231, MTS 72 hours at 10 uM
[4] = Homo sapiens, NCI-H1299 cells, read-out: NCI-H1299, MTS 72 hours at 10 uM
[5] = Homo sapiens, PC-3 cells, read-out: PC-3, MTS 72 hours at 10 uM
[6] = PACA-2 cells, read-out: PACA-2, MTS 72 hours at 10 uM

Row | SMILES | inhibition at 10 µM [1] [%] | inhibition at 10 µM [2] [%] | inhibition at 10 µM [3] [%] | inhibition at 10 µM [4] [%] | inhibition at 10 µM [5] [%] | inhibition at 10 µM [6] [%]
1 | c1ccc(N2CCc3n[nH]c4nc(N5CCCC5)nc2c34)cc1 [Compound 216, 6-phenyl-4-pyrrolidin-1-yl-2,6,7,8-tetrahydro-1,2,3,5,6-pentaazaacenaphthylene] | < 50 | < 50 | < 50 | < 50 | < 50 | 50 to 79
2 | c1ccc(CN2CCN(c3nc4c5c(n[nH]c5n3)CCN4c3ccccc3)CC2)cc1 [Compound 217, 4-(4-benzylpiperazin-1-yl)-6-phenyl-2,6,7,8-tetrahydro-1,2,3,5,6-pentaazaacenaphthylene] | < 50 | < 50 | < 50 | < 50 | < 50 | < 50
3 | c1ccc(N2CCc3n[nH]c4nc(N5CCOCC5)nc2c34)cc1 [Compound 218, 4-morpholin-4-yl-6-phenyl-2,6,7,8-tetrahydro-1,2,3,5,6-pentaazaacenaphthylene] | < 50 | < 50 | < 50 | < 50 | < 50 | < 50
4 | CN1CCC(Nc2nc3c4c(n[nH]c4n2)CCN3c2ccccc2)CC1 [Compound 219, N-(1-methylpiperidin-4-yl)-6-phenyl-2,6,7,8-tetrahydro-1,2,3,5,6-pentaazaacenaphthylen-4-amine] | > 79 | > 79 | > 79 | 50 to 79 | > 79 | > 79
5 | c1ccc(CCNc2nc3c4c(n[nH]c4n2)CCN3c2ccccc2)cc1 [Compound 220, 6-phenyl-N-(2-phenylethyl)-2,6,7,8-tetrahydro-1,2,3,5,6-pentaazaacenaphthylen-4-amine] | > 79 | > 79 | 50 to 79 | 50 to 79 | 50 to 79 | > 79
6 | Fc1ccc(CCNc2nc3c4c(n[nH]c4n2)CCN3c2ccccc2)cc1 [Compound 221, N-[2-(4-fluorophenyl)ethyl]-6-phenyl-2,6,7,8-tetrahydro-1,2,3,5,6-pentaazaacenaphthylen-4-amine] | < 50 | < 50 | < 50 | < 50 | < 50 | < 50
7 | CCOC(=O)C1CN(Cc2ccccc2)c2nc(SC)nc3[nH]nc1c23 (stereo not drawn) [Compound 222, ethyl 6-benzyl-4-(methylsulfanyl)-2,6,7,8-tetrahydro-1,2,3,5,6-pentaazaacenaphthylene-8-carboxylate] | < 50 | < 50 | < 50 | < 50 | < 50 | < 50
8 | CN(C)CCCNc1nc2c3c(n[nH]c3n1)C(C(=O)NCc1ccccc1)CN2Cc1ccccc1 (stereo not drawn) [Compound 223, N,6-dibenzyl-4-{[3-(dimethylamino)propyl]ami-no}-2,6,7,8-tetrahydro-1,2,3,5,6-pentaazaacenaphthylene-8-carboxamide] | < 50 | < 50 | < 50 | < 50 | < 50 | < 50
9 | COc1cccc(CCNc2nc3c4c(n[nH]c4n2)C(C(=O)NCc2ccccc2)CN3Cc2ccccc2)c1 (stereo not drawn) [Compound 224, N,6-dibenzyl-4-{[2-(3-methoxyphenyl)ethyl]amino}-2,6,7,8-tetrahydro-1,2,3,5,6-pentaazaacenaphthylene-8-carboxamide] | < 50 | < 50 | < 50 | < 50 | < 50 | < 50
10 | O=C(NCc1ccccc1)C1CN(Cc2ccccc2)c2nc(NCc3ccco3)nc3[nH]nc1c23 (stereo not drawn) [Compound 225, N,6-dibenzyl-4-[(furan-2-ylmethyl)amino]-2,6,7,8-tetrahydro-1,2,3,5,6-pentaazaacenaphthylene-8-carboxamide] | < 50 | < 50 | < 50 | < 50 | < 50 | < 50
11 | O=C(NCc1ccccc1)C1CN(Cc2ccccc2)c2nc(NCCc3c[nH]c4ccccc34)nc3[nH]nc1c23 (stereo not drawn) [Compound 226, N,6-dibenzyl-4-{[2-(1H-indol-3-yl)ethyl]amino}-2,6,7,8-tetrahydro-1,2,3,5,6-pentaazaacenaphthylene-8-carboxamide] | > 79 | > 79 | > 79 | > 79 | > 79 | > 79
12 | O=C(NCc1ccccc1)C1CN(Cc2ccccc2)c2nc(N3CCCCC3)nc3[nH]nc1c23 (stereo not drawn) [Compound 227, N,6-dibenzyl-4-piperidin-1-yl-2,6,7,8-tetrahydro-1,2,3,5,6-pentaazaacenaphthylene-8-carboxamide] | > 79 | 50 to 79 | > 79 | > 79 | > 79 | < 50
13 | CN1CCN(c2nc3c4c(n[nH]c4n2)C(C(=O)NCc2ccccc2)CN3Cc2ccccc2)CC1 (stereo not drawn) [Compound 228, N,6-dibenzyl-4-(4-methylpiperazin-1-yl)-2,6,7,8-tetrahydro-1,2,3,5,6-pentaazaacenaphthylene-8-carboxamide] | < 50 | < 50 | < 50 | < 50 | < 50 | < 50
14 | O=C(NCc1ccccc1)C1CN(Cc2ccccc2)c2nc(NCc3ccccc3Cl)nc3[nH]nc1c23 (stereo not drawn) [Compound 229, N,6-dibenzyl-4-[(2-chlorobenzyl)amino]-2,6,7,8-tetrahydro-1,2,3,5,6-pentaazaacenaphthylene-8-carboxamide] | < 50 | < 50 | < 50 | < 50 | 50 to 79 | < 50
15 | O=C(NCc1ccccc1)C1CN(Cc2ccccc2)c2nc(NCc3ccc(Oc4ccccc4)cc3)nc3[nH]nc1c23 (stereo not drawn) [Compound 230, N,6-dibenzyl-4-[(4-phenoxybenzyl)amino]-2,6,7,8-tetrahydro-1,2,3,5,6-pentaazaacenaphthylene-8-carboxamide] | > 79 | 50 to 79 | < 50 | 50 to 79 | 50 to 79 | < 50
16 | O=C(NCc1ccccc1)C1CN(Cc2ccccc2)c2nc(N3CCN(c4ccccc4)CC3)nc3[nH]nc1c23 (stereo not drawn) [Compound 231, N,6-dibenzyl-4-(4-phenylpiperazin-1-yl)-2,6,7,8-tetrahydro-1,2,3,5,6-pentaazaacenaphthylene-8-carboxamide] | 50 to 79 | 50 to 79 | > 79 | > 79 | 50 to 79 | 50 to 79
